We go through three molecules from ChEMBL document CHEMBL5034035, “Discovery of an Oxycyclohexyl Acid Lysophosphatidic Acid Receptor 1 (LPA1) Antagonist BMS-986278 for the Treatment of Pulmonary Fibrotic Diseases” (J Med Chem, 2021).

One may read the IC50 as the concentration at which inhibition is half-maximal. By bioavailability is commonly meant the share of a dose that reaches the circulation, judged against a reference dose that is usually intravenous. In general, solubility refers to the dissolved amount per volume that the medium holds. The Kb is the equilibrium dissociation constant of an antagonist, usually derived from a functional assay.

Values after ≈ are worked out from the molar mass of the structure shown. Bounds are passed on as bounds.

The target of one data set is Cytochrome P450 3A4 (Homo sapiens, UniProt P08684). Nature of the data set: Inhibition of CYP3A4 (unknown origin). The format is ADME.
Cytochrome P450 3A4, sequence (P08684 whole entry): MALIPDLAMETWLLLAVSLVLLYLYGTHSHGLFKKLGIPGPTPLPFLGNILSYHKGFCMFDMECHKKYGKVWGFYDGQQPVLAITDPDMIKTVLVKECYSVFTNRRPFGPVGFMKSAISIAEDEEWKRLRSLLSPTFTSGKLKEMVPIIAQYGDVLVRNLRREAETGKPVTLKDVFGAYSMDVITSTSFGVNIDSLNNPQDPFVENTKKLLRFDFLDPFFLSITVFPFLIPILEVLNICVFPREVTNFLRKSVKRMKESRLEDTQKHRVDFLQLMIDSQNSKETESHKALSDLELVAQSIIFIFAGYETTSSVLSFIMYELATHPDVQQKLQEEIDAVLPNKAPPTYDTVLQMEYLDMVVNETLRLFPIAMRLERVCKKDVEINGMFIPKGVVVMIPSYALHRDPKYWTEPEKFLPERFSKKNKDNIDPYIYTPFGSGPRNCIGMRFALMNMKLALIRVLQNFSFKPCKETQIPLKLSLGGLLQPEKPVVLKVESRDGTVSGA
Data set [1] is described as follows: Elimination half life in Sprague-Dawley rat at 3 mg/kg, po or 1 mg/kg, iv measured up to 24 hrs by LC-MS/MS analysis. It is filed as ADME, organism-based. The note with it: in vivo, read-out: beta t1/2 (converted).
Data set [2] is described as follows: Volume of distribution at steady state in CD-1 mouse at 3 mg/kg, po or 1 mg/kg, iv measured up to 24 hrs by LC-MS/MS analysis. It is filed as ADME, organism-based. The conditions noted are these: in vivo, read-out: Vdss.
Data set [3] can be described thus: Plasma clearance in CD-1 mouse at 3 mg/kg, po or 1 mg/kg, iv measured up to 24 hrs by LC-MS/MS analysis. The format is ADME, organism-based.
Data set [4] is described as follows: Oral bioavailability in Sprague-Dawley rat at 3 mg/kg measured up to 24 hrs by LC-MS/MS analysis. It is filed as ADME, organism-based. The note with it: in vivo.
Data set [5] is described as follows: Half life in mouse liver microsomes at 10 uM measured after 120 mins. It is filed as ADME, Microsome. A general note: Liver microsomes are vesicles of endoplasmic reticulum, rich in cytochrome P450 enzymes.
A short description of data set [6]: Plasma clearance in Cynomolgus monkey at 3 mg/kg, po or 1 mg/kg, iv measured up to 24 hrs by LC-MS/MS analysis. The format is ADME, organism-based, Macaca fascicularis.
The nature of data set [7]: Drug metabolism in human hepatocytes assessed as carbamate hydrolytic product formation at 10 uM measured after 2 hrs by LC/UV/MS analysis. It is filed as ADME, cell-based, Hepatocyte.
Data set [8] can be described thus: Aqueous solubility of compound at pH 1. The format is physicochemical.
The target in a further data set is Cytochrome P450 2C19 (Homo sapiens, UniProt P33261). Nature of the data set: Inhibition of CYP2C19 (unknown origin). The format is ADME.
Cytochrome P450 2C19, sequence (P33261 whole entry): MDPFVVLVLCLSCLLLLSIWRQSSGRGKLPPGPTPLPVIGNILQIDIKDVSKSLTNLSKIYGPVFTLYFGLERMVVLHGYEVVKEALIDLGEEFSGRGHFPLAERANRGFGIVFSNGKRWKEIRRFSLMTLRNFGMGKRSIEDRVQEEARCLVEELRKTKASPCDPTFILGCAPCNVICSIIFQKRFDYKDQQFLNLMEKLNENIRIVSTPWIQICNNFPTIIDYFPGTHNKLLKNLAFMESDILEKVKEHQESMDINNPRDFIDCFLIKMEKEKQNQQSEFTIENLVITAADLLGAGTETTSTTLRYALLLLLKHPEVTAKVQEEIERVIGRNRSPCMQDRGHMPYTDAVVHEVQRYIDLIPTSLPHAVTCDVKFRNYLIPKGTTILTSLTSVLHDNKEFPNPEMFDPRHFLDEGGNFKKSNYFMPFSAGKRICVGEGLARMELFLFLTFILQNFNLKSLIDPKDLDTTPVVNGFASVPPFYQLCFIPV
The target in the next data set is CYP2C9 (Homo sapiens, UniProt P11712). Nature of the data set: Induction of CYP2C9 in human hepatocytes. The format is ADME, cell-based, Hepatocyte.
CYP2C9, sequence (P11712 whole entry): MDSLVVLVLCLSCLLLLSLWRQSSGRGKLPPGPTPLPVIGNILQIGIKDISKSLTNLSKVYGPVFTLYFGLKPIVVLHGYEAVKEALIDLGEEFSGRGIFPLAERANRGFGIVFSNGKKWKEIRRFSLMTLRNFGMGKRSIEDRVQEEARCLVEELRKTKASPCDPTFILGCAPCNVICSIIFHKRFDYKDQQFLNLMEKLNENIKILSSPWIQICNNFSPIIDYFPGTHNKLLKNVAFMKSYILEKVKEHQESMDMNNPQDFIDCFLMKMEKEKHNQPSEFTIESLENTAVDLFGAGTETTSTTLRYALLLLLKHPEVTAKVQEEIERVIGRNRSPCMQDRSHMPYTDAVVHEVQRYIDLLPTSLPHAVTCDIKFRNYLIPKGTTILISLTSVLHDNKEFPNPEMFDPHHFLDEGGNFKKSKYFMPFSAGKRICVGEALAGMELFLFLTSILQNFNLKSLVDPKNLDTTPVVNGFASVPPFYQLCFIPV
Data set [9] in a line: Volume of distribution at steady state in Sprague-Dawley rat at 3 mg/kg, po or 1 mg/kg, iv measured up to 24 hrs by LC-MS/MS analysis. It is filed as ADME, organism-based. The conditions noted are these: in vivo, read-out: Vdss.
Another data set has as its target T1, Cytochrome P450 1A2 (Homo sapiens, UniProt P05177).
T1 sequence (P05177 whole entry): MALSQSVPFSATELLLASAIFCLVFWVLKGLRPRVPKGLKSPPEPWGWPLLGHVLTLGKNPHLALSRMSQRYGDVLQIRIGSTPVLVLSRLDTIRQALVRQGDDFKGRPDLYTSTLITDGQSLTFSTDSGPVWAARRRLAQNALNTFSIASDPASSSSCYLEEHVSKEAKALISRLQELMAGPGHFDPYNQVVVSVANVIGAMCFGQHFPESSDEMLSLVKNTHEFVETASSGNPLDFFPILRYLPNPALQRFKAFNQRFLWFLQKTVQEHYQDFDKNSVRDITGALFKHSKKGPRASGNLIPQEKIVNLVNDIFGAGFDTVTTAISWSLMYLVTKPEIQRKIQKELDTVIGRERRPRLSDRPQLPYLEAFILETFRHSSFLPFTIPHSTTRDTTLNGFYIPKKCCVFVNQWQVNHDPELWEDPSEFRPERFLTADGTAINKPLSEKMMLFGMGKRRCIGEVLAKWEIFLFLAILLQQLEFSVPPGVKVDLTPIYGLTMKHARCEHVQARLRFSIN
The experiment in a line: Inhibition of CYP1A2 (unknown origin). The format is ADME.

Data set [10] has as its target T2, Solute carrier organic anion transporter family member 1B1 (Homo sapiens, UniProt Q9Y6L6).
T2 sequence (Q9Y6L6 whole entry): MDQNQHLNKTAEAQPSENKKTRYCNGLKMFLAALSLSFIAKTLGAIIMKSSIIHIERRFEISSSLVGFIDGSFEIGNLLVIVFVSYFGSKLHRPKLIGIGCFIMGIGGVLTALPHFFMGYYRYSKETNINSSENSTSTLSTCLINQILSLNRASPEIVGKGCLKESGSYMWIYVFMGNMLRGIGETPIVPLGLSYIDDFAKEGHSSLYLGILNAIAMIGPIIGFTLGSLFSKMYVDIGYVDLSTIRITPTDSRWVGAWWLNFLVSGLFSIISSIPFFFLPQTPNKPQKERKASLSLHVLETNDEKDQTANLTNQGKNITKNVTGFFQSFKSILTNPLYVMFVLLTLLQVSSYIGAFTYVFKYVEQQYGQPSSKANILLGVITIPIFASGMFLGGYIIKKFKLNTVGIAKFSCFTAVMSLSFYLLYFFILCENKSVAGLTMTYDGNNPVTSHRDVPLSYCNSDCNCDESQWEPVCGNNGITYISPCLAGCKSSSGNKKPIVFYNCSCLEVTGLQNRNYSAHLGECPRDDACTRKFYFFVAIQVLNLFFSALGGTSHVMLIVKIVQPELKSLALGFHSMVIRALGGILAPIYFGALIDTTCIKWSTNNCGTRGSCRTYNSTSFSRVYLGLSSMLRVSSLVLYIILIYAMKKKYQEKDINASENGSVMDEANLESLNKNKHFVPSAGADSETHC
Nature of the data set: Inhibition of OATP1B1 (unknown origin). It is filed as ADME.

The nature of data set [11]: Oral bioavailability in cynomolgus monkey at 3 mg/kg measured up to 24 hrs by LC-MS/MS analysis. The format is ADME, organism-based, Macaca fascicularis. The conditions noted are these: in vivo.
The nature of data set [12]: Elimination half life in CD-1 mouse at 3 mg/kg, po or 1 mg/kg, iv measured up to 24 hrs by LC-MS/MS analysis. The format is ADME, organism-based. The note with it: in vivo, read-out: beta t1/2 (converted).
The next data set has as its target T3, Cytochrome P450 2C8 (Homo sapiens, UniProt P10632).
T3 sequence (P10632 whole entry): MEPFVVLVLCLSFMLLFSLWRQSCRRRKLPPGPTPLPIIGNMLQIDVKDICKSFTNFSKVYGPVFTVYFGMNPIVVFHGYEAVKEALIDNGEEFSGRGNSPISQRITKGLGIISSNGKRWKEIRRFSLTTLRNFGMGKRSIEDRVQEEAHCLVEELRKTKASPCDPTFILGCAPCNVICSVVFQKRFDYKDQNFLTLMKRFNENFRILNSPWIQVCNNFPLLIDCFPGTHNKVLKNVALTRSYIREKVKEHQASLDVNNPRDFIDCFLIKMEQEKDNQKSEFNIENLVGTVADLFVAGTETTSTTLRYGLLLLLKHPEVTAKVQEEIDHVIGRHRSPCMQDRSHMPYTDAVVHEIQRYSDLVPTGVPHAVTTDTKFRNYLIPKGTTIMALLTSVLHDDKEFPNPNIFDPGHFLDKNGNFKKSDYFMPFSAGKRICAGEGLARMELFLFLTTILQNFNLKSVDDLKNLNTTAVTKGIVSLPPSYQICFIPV
The experiment in a line: Inhibition of CYP2C8 (unknown origin). The format is ADME.

A further data set deals with Cytochrome P450 2D6 (Homo sapiens, UniProt P10635). The experiment in a line: Inhibition of CYP2D6 (unknown origin). It is filed as ADME.
Cytochrome P450 2D6, sequence (P10635 whole entry): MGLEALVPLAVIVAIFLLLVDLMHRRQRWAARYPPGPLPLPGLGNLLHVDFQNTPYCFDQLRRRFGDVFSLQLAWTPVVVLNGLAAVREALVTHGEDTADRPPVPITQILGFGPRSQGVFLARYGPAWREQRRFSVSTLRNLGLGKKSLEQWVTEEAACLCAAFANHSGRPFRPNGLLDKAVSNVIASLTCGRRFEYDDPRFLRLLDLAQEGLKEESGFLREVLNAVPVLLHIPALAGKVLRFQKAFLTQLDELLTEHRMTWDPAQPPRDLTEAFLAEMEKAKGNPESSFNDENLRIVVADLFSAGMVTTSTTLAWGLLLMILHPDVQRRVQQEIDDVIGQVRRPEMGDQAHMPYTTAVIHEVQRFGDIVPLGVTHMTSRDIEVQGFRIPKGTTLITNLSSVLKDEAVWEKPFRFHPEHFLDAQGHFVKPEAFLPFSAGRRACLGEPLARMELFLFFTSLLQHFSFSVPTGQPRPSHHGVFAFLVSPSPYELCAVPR
The next data set concerns the target CYP3A4 (Homo sapiens, UniProt P08684). Nature of the data set: Induction of CYP3A4 in human hepatocytes. The format is ADME, cell-based, Hepatocyte.
Data set [13] has as its target Lysophosphatidic acid receptor 1 (Mus musculus) (UniProt P61793). Nature of the data set: Antagonist activity at mouse LPA1 receptor expressed in CHO cells assessed as inhibition of LPA stimulated calcium flux incubated for 20 mins followed by LPA stimulation and measured for 90 seconds. It is filed as functional, cell-based. The note with it: filed as antagonist.

The target in data set [14] is Phosphatidylcholine translocator ABCB4 (Homo sapiens, UniProt P21439). Nature of the data set: Inhibition of MDR3 (unknown origin). The format is ADME.
Phosphatidylcholine translocator ABCB4, sequence (P21439 whole entry): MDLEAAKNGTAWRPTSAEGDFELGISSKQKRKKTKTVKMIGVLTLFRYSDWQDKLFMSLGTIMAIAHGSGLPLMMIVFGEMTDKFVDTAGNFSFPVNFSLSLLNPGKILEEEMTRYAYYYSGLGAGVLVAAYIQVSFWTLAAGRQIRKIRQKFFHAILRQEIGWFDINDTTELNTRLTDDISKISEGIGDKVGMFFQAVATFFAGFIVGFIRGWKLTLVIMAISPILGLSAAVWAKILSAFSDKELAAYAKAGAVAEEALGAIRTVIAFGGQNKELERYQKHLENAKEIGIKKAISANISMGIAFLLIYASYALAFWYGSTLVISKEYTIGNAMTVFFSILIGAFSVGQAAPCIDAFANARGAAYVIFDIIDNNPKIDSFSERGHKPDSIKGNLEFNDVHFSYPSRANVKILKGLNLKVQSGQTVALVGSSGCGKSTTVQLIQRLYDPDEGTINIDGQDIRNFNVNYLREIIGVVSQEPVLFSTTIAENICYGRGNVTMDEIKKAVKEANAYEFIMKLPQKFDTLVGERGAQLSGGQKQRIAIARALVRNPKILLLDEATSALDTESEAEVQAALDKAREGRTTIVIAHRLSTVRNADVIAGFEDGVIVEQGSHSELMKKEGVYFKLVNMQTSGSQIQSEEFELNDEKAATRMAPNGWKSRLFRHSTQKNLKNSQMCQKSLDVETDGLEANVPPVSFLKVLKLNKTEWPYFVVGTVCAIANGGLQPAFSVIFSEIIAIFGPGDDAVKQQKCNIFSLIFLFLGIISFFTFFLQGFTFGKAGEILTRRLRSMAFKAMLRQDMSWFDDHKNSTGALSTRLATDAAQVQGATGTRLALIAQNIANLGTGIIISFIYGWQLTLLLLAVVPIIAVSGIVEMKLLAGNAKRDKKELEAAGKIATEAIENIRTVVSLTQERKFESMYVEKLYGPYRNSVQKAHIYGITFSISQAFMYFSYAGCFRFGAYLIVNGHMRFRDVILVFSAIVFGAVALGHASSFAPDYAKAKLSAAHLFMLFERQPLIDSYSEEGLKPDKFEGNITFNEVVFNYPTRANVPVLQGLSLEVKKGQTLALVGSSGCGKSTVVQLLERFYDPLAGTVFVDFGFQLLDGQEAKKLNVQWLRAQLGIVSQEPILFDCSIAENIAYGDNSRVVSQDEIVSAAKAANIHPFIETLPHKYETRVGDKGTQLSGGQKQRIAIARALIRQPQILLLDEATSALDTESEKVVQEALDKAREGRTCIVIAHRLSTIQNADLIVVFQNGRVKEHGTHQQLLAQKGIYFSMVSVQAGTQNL

CYP3A4, sequence (P08684 whole entry): as the sequence (P08684 whole entry) above
Lysophosphatidic acid receptor 1 (Mus musculus), sequence (P61793 whole entry): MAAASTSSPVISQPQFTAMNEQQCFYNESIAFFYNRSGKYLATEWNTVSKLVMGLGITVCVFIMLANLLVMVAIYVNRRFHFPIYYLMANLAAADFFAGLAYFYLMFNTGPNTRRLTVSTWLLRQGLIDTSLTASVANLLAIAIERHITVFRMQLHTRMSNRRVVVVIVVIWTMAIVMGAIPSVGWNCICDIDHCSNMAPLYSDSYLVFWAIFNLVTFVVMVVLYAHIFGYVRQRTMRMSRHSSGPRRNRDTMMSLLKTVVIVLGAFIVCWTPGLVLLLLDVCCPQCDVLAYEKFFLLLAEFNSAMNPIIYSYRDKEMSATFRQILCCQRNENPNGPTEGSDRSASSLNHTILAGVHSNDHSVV

Turning to `Cc1nc(-c2nnn(C)c2COC(=O)N(C)CC2CCC2)ccc1O[C@H]1CCC[C@H](C(=O)O)C1`, the IC50 against Cytochrome P450 3A4 was over 40 µM; at Cytochrome P450 2C19 it was over 40 µM; at CYP2C9, over 50 µM; against Cytochrome P450 1A2 it was over 40 µM; in [10], 1.5 µM; against Cytochrome P450 2C8 it was over 40 µM. Moreover, the IC50 is over 40 µM against Cytochrome P450 2D6 and over 50 µM on CYP3A4. Further, the half-life in data set [1] is 2 h; in data set [12] it was 1.5 h. Moreover, the Vd in data set [2] worked out at 14.6 L/kg; in data set [9] it was 9 L/kg. Also, the clearance in data set [3] was found to be 118 mL/min/kg; in data set [6], 17 mL/min/kg. The bioavailability in data set [4] was 69%; in data set [11], 65%. The molecule also registered a half-life at 10 µM in [5] of over 2 h. The Drug metabolism entry in data set [7] is on record as “Metabolite_Notdetected”. Moreover, in [8], the solubility came to 389 µg/mL (≈ 825 µM).

For `CCCN(C)C(=O)OCc1c(-c2ccc(O[C@H]3CCC[C@H](C(=O)O)C3)c(C)n2)nnn1C` [ADMILPARANT], the IC50 is over 40 µM against Cytochrome P450 3A4; over 40 µM on Cytochrome P450 2C19; over 50 µM at CYP2C9; over 100 µM in data set [14]; over 40 µM against Cytochrome P450 1A2; 36 µM in [10]. Besides, the figures for the 50% inhibitory concentration (IC50) against Cytochrome P450 2C8, on Cytochrome P450 2D6 and at CYP3A4 were over 40 µM, over 40 µM and over 50 µM, respectively. Besides, the half-life is 4.5 h in data set [1] and 2.5 h in [12]. In addition, the Vd in [2] was found to be 5.5 L/kg; in data set [9], 3.5 L/kg. Besides, the clearance in data set [3] is 37 mL/min/kg; in [6], 2 mL/min/kg. In addition, the bioavailability in [4] stood at 100%; in data set [11], 79%. For the same molecule, the half-life at 10 µM in [5] is over 2 h. In addition, in data set [7], the Drug metabolism result was “Metabolite_Detected”. Besides, the concentration in solution in data set [8] (solubility) came to 2990 µg/mL (≈ 6710 µM). In data set [13], the antagonist equilibrium constant (Kb) came to 0.004 µM.

Take `Cc1noc(-c2ccc(-c3ccc(C4(C(=O)O)CC4)cc3)cc2)c1NC(=O)O[C@H](C)c1ccccc1` [BMS-986020]: the half-inhibitory concentration (IC50) against Cytochrome P450 3A4 is over 50 µM; on Cytochrome P450 2C19, over 50 µM; against CYP2C9, over 50 µM; in [14] it was 7.5 µM; at Cytochrome P450 1A2, over 50 µM; in data set [10] it was 0.17 µM. In addition, the IC50 was 3.5 µM on Cytochrome P450 2C8, over 50 µM against Cytochrome P450 2D6 and over 50 µM against CYP3A4. Further, in data set [5], the half-life at 10 µM stood at 1.52 h. In [8], this molecule registered a solubility of under 1 µg/mL. The Kb in data set [13] amounted to 0.0037 µM.
